Measured values published in patent US10849959B2, “Formulation, dosage form and method of reducing knee pain” (ORTHOTROPHIX, INC., priority 2017, dated 2020).
Where two headings read alike, the source gives them in different places.

How the values were obtained:
[1] = stated as known, no test described, cited from earlier work
[2] = tested on: subjects with bilateral patello-femoral knee osteoarthritis
Procedure: Eighteen (18) orthopedic, rheumatologic and family practice centers in the U.S. participated in the study.
A Safety Review Committee (SRC) evaluated safety in each dosing cohort. The SRC assessed safety and dose-limiting toxicities, if evident, and determined whether the next higher dosing regimen might be enrolled. Part A were completed and analyzed with regard to safety prior to dose selection and initiation of Part B.
Six (6) subjects were enrolled in 20, 50, and 100 mg cohorts, respectively, and nine (9) subjects were enrolled in 200 mg cohort. Each dosing cohort was reviewed based on safety analysis of dose groups in Part A.
No other doses of drug or placebo were administered. All subjects visited their respective clinical sites at 3, 6, and 12 months after the first dosing for their safety and efficacy assessments.
On the first dosing day, the randomized subjects were assessed for their general health conditions by physical examinations and vital signs. Further, they completed self-reported assessments of the conditions of each of their knees as well as systemic health by the questionnaires of KOOS (Knee injury and Osteoarthritis Outcome Score), which includes subscales of WOMAC (Western Ontario and McMaster Universities Osteoarthritis Index). KOOS is a questionnaire that assesses knee-specific activities of daily living, sports and recreation function, knee-related quality of life, symptom, and knee pain. […] After these assessments, subjects received one intra-articular injection in each knee, with each injection prepared from the vial(s) marked for that knee. One knee received TPX-100, and the contralateral knee received placebo, in a triple-blind fashion (subject, site, and sponsor all blinded to treatment assignment). Subjects were monitored for adverse events during the injections and for a few hours after the injections. Vital signs were also monitored after the injections.
On the 7th, 14th, and 21st days after the first dosing, subjects received the second, third, and fourth (last) dosing of the same study materials, respectively, as well as safety and adverse event assessments in the same way as the first dosing day.
Subjects returned to their respective study sites at 3, 6 and 12 months after the first dosing day for follow-up evaluations. In addition, the study sites monitored the subject's condition through telephone contact 9 months after the first dosing day. During the 3, 6, and 12 months post-treatment follow-up on-site visits, subjects were evaluated by physical examination, vital signs, serum chemistry, as well as KOOS. Adverse events and concomitant medications were also recorded.

[3] = tested on: subjects with bilateral patello-femoral knee osteoarthritis; experiment: Randomized double-blind placebo-controlled clinical study of TPX-100, efficacy by KOOS/WOMAC patient reported outcomes; assay type: in vivo, human; conditions: for Severity of pain going up or down stairs, treated vs placebo-treated knee (in words): p=0.004; for Pain alleviation in other activities or statuses of KOOS pain: activities other than going up or down stairs (and bending knee fully), any time point; for Knee functions, KOOS ADL (Function of Daily Living) and WOMAC function, treated vs placebo-treated knees: both 6 and 12 months after treatment, FIG. 12
Procedure: For this activity, the peptide of SEQ ID No. 1 was tested for its clinical safety and efficacy on a condition involving cartilage damage in a Phase 2 randomized double-blind controlled clinical trial with mild to severe knee osteoarthritis (OA) patients. See EXAMPLES.
The KOOS ADL (Function of Daily Living) consists of 17 questions asking degree of difficulty in functioning each knee during 17 different activities in daily living. Those 17 activities are broadly ranged from light to heavy duties. With regard to each activity, difficulty of each knee function is scored in 0-4 range where 0 as no difficulty and 4 as the most difficulty. The sum of the scores range from 0 to 68 (4×17), which is then converted to a 0-100 scale is KOOS ADL score. WOMAC function consists of the same questions with same scoring, except the total score range is not converted to 0-100 but remains 0-68.
The KOOS pain domain consists of 9 questions and each question is scored in 0-4 range. The sum of the scores, 0-36 (4×9), which is converted to a 0-100 scale to generate a KOOS pain score. While the first of the 9 questions asks for the frequency of knee pain, the other 8 questions ask for severity of knee pain during different activities or positions, where 0 is “never” experiencing pain and 4 is “always” experiencing pain. These 8 activities range from positions with little to no motion such as “at night while in bed” to those with high joint loading such as “going up or down stairs” (See FIG. 2). WOMAC pain consists of the same questions with the same scoring, except that the total score is not converted to a 100-point scale but remains in the range 0-36.
MRIs of both knees were evaluated by a central reader to determine the ICRS grade (gICRS) of each knee. If the cartilage of patello-femoral compartment in both knees fell within ICRS grades 1-3, or 4 with only focal defects, no defects greater than 1 cm, and all other inclusion criteria were met, with none of the exclusion criteria, the subject was registered. The randomization center randomized each subject to either Right knee active or Left knee active, with the active knee to receive TPX-100 and the contralateral knee to receive identical placebo.
For enrolled subjects, there was within-subject randomization, such that one knee received active drug injections, and the contralateral knee received identical placebo injections. Using subjects as their own control permits reduction of confounders such as weight, activity level, pain threshold, and uncharacterized genetic susceptibilities to OA progression. As two knees within a person form a matched set, the effects of individual-level confounders that are difficult to quantify (e.g. level of activity, genetic and epigenetic factors, pain threshold) are eliminated, increasing the power of the study to detect a treatment effect if one is present.
All KOOS subscale scores were analyzed. The primary analysis was carried out using a two-sided paired t-test at the 5% level of significance. The outcome variable was the difference between the change of the score of each subscale of KOOS from baseline in the treated knee (“Index Knee”) and the change from baseline in the placebo-treated knee (“Control Knee”).
Ninety-three (93) subjects who received 200 mg per dose of TPX-100 in one knee and placebo in contralateral knee were analyzed for efficacy.

[4] = tested on: standardized large cartilage defects; conditions: four weekly intra-articular injections, cited from earlier work
[5] = 12 months, 200 mg, listed as peptide of SEQ ID No. 1
[6] = 200 mg, listed as peptide of SEQ ID No. 1

Sequence: TDLQERGDNDISPFSGDGQPFKD [TPX-100]
- Analgesic or anti-inflammatory activities [1]: does not have any analgesic or anti-inflammatory activities
- Analgesic or anti-inflammatory activities ([1]; listed as peptide of SEQ ID No. 1): does not have any anti-inflammatory or analgesic activities
- Dose-limiting toxicities ([2]; Part A, 20, 50, 100 and 200 mg per intra-articular injection, four weekly): no dose-limiting toxicities
- Safety and tolerability of treatments ([2]; throughout the study period): safe and well tolerated
- Severe adverse events related to drug treatment ([2]; throughout the study period): no severe adverse events likely or possibly related to the drug treatment
- Severity of treatment-related adverse events ([2]; throughout the study period): mild or moderate, transient
- Function improvement across the 17 activities of KOOS ADL, treated vs placebo-treated knee ([3]; 200 mg): observed in most of the 17 light to heavy activities
- Frequency of overall knee pain, Index vs Control knees (in words) ([3]; 12 months, 200 mg): significantly improved (p=0.04)
- Severity of pain bending knee fully, treated vs placebo-treated knee (in words) ([3]; 12 months, 200 mg): trend (p<0.09) of improvement
- Frequency of overall knee pain, Index vs Control knees (in words) [3, 5]: significantly reduced
- Severity of pain bending knee fully, treated vs placebo-treated knee (in words) [3, 5]: near statistically significant pain alleviation
- Severity of pain going up or down stairs, treated vs placebo-treated knee (in words) ([3]; 12 months, 200 mg): highly significant
- Severity of pain going up or down stairs, treated vs placebo-treated knee (in words) [3, 5]: statistically significant improvement
- Score Change from Baseline to 12 Months, Index: How often do you experience RIGHT/LEFT knee pain? ([3]; KOOS Pain Question 1 (frequency, score 0-4), TPX-100 treated knees, 200 mg intra-articular, 4 weekly doses, 12 months): −0.62
- Difference = [Index score change] − [Control score change]: How often do you experience RIGHT/LEFT knee pain? ([3]; KOOS Pain Question 1, TPX-100 vs placebo treated knees, baseline to 12 months, 200 mg): −0.26
- Score Change from Baseline to 12 Months, Index: Twisting/pivoting on your knee ([3]; KOOS Pain Question 2 (severity, score 0-4), TPX-100 treated knees, 200 mg intra-articular, 4 weekly doses, 12 months): −0.19
- Difference = [Index score change] − [Control score change]: Twisting/pivoting on your knee ([3]; KOOS Pain Question 2, TPX-100 vs placebo treated knees, baseline to 12 months, 200 mg): −0.09
- Score Change from Baseline to 12 Months, Index: Straightening knee fully moving ([3]; KOOS Pain Question 3 (severity, score 0-4), TPX-100 treated knees, 200 mg intra-articular, 4 weekly doses, 12 months): −0.30
- Difference = [Index score change] − [Control score change]: Straightening knee fully moving ([3]; KOOS Pain Question 3, TPX-100 vs placebo treated knees, baseline to 12 months, 200 mg): −0.12
- Score Change from Baseline to 12 Months, Index: Bending knee fully ([3]; KOOS Pain Question 4 (severity, score 0-4), TPX-100 treated knees, 200 mg intra-articular, 4 weekly doses, 12 months): −0.45
- Difference = [Index score change] − [Control score change]: Bending knee fully ([3]; KOOS Pain Question 4, TPX-100 vs placebo treated knees, baseline to 12 months, 200 mg): −0.24
- Score Change from Baseline to 12 Months, Index: Walking on flat surface ([3]; KOOS Pain Question 5 (severity, score 0-4), TPX-100 treated knees, 200 mg intra-articular, 4 weekly doses, 12 months): −0.25
- Difference = [Index score change] − [Control score change]: Walking on flat surface ([3]; KOOS Pain Question 5, TPX-100 vs placebo treated knees, baseline to 12 months, 200 mg): −0.12
- Score Change from Baseline to 12 Months, Index: Going up or down stairs ([3]; KOOS Pain Question 6 (severity, score 0-4), TPX-100 treated knees, 200 mg intra-articular, 4 weekly doses, 12 months): −0.51
- Difference = [Index score change] − [Control score change]: Going up or down stairs ([3]; KOOS Pain Question 6, TPX-100 vs placebo treated knees, baseline to 12 months, 200 mg): −0.33
- Score Change from Baseline to 12 Months, Index: At night while in bed ([3]; KOOS Pain Question 7 (severity, score 0-4), TPX-100 treated knees, 200 mg intra-articular, 4 weekly doses, 12 months): −0.19
- Difference = [Index score change] − [Control score change]: At night while in bed ([3]; KOOS Pain Question 7, TPX-100 vs placebo treated knees, baseline to 12 months, 200 mg): 0.00
- Difference = [Index score change] − [Control score change]: Sitting or lying ([3]; KOOS Pain Question 8, TPX-100 vs placebo treated knees, baseline to 12 months, 200 mg): −0.02
- Score Change from Baseline to 12 Months, Index: Standing upright ([3]; KOOS Pain Question 9 (severity, score 0-4), TPX-100 treated knees, 200 mg intra-articular, 4 weekly doses, 12 months): −0.34
- Difference = [Index score change] − [Control score change]: Standing upright ([3]; KOOS Pain Question 9, TPX-100 vs placebo treated knees, baseline to 12 months, 200 mg): −0.16
- Pain alleviation in other activities or statuses of KOOS pain ([3]; 200 mg): did not show statistically significant improvements
- Pain alleviation in other activities or statuses of KOOS pain [3, 6]: did not show pain alleviation with statistical significance or trend
- KOOS Sports and Recreation subscale, Index vs Control knees ([3]; at 6 months, 200 mg): clinically meaningful and statistically significant improvement
- KOOS knee related quality of life (QOL) subscale, Index vs Control knees ([3]; at 12 months, 200 mg): clinically meaningful and statistically significant improvement
- Total KOOS pain subscale, Index vs Control knees ([3]; at 12 months, 200 mg): clinically meaningful and statistical trend (p<0.09) of improvement
- Total KOOS pain subscale, Index vs Control knees ([3]; at 12 months, 200 mg, listed as peptide of SEQ ID No. 1): clinically meaningful improvement
- Knee functions, KOOS ADL (Function of Daily Living) and WOMAC function, treated vs placebo-treated knees ([3]; 200 mg): clinically meaningful and statistically significant (p<0.05) improvement
- Knee functions, KOOS ADL (Function of Daily Living) and WOMAC function, treated vs placebo-treated knees [3, 6]: clinically meaningful and highly statistically significant (p=0.008) improvement
- Total KOOS pain score, treated vs placebo treated knees ([3]; until 6 months after the treatment, 200 mg): very similar
- Articular cartilage regeneration compared to vehicle control group ([4]; 125 mg and 250 mg, 6 months post-surgery): histologically-confirmed and statistically significant articular cartilage regeneration
- Safety and tolerability in goats ([4]; freely ambulatory animals): safe and well-tolerated
